The CheMixHub viscosity set
Several values for one entry are separate records, joined by “and”; a condition that tells them apart may be missing. Identical values can stand only once.

How the values were obtained:
[1] = xn = mol fraction of the nth substance listed; conditions: 100 kPa

CCCCOC(=O)c1ccccc1
viscosity [mPa·s]
Conditions | 293.15 K | 298.15 K | 303.15 K | 308.15 K | 313.15 K | 318.15 K | 323.15 K
101 kPa | – | 2.691 | – | 2.208 | – | 1.819 | –
101.33 kPa | 2.835 | – | 2.189 | – | 1.73 | – | 1.388

CCCC
viscosity [mPa·s]
Conditions | 293.15 K | 313.15 K
101 kPa | 0.17 | 0.143
101.33 kPa | 0.17 | 0.143

CCC(O)CO (centres undefined)
viscosity [mPa·s]
Conditions | 298.15 K | 303.15 K | 308.15 K | 313.15 K | 318.15 K | 323.15 K
100 kPa | 51.63 | 37.66 | 28.44 | 21.59 | 16.74 | 13.22
101 kPa | 52.8 | 38.71 | 29.48 | 22.86 | – | 12.85

Nc1ccccc1
Conditions | viscosity
293.15 K, 100 kPa | 4.407 mPa·s and 4.41 mPa·s
293.15 K, 101 kPa | 4.28 mPa·s and 4.28 mPa·s
293.15 K, 101.33 kPa | 4.404 mPa·s
293.35 K, 101 kPa | 4.26 mPa·s
298.15 K, 100 kPa | 3.737 mPa·s
298.15 K, 101.3 kPa | 3.61 mPa·s
298.15 K, 101.32 kPa | 3.773 mPa·s
298.15 K, 101.33 kPa | 3.62 mPa·s
302.4 K, 101 kPa | 5.537 mPa·s
302.75 K, 101 kPa | 3.15 mPa·s
303 K, 101 kPa | 3.097 mPa·s
303 K, 101.3 kPa | 3.111 mPa·s
303 K, 101.33 kPa | 3.036 mPa·s and 3.035 mPa·s
303.15 K, 100 kPa | 3.197 mPa·s and 3.029 mPa·s
303.15 K, 101.33 kPa | 3.078 mPa·s
308 K, 101 kPa | 2.663 mPa·s
308 K, 101.3 kPa | 2.691 mPa·s
308.1 K, 101 kPa | 2.79 mPa·s
308.15 K, 100 kPa | 2.78 mPa·s
308.15 K, 101 kPa | 2.857 mPa·s and 2.639 mPa·s
308.15 K, 101.3 kPa | 2.7 mPa·s
308.15 K, 101.33 kPa | 2.615 mPa·s
313 K, 101 kPa | 2.329 mPa·s
313 K, 101.3 kPa | 2.338 mPa·s
313.15 K, 100 kPa | 2.445 mPa·s and 2.305 mPa·s and 2.49 mPa·s
313.15 K, 101.33 kPa | 2.327 mPa·s
318 K, 101 kPa | 2.057 mPa·s
318 K, 101.3 kPa | 2.054 mPa·s
318.15 K, 100 kPa | 2.159 mPa·s
318.15 K, 101 kPa | 2.157 mPa·s and 2.047 mPa·s and 2.113 mPa·s
323.15 K, 100 kPa | 1.927 mPa·s
323.15 K, 101 kPa | 1.806 mPa·s
323.15 K, 101.3 kPa | 1.87 mPa·s
323.15 K, 101.33 kPa | 2.01 mPa·s

C[NH+](CCO)CCO.O=C[O-]
101 kPa
Conditions | viscosity [mPa·s]
293.15 K | 708.5
298.15 K | 491.4
303.15 K | 350
313.15 K | 190
323.15 K | 124.5

ClCc1ccccc1
101 kPa
Conditions | viscosity [mPa·s]
298.15 K | 1.377
303.15 K | 1.112

CC(C)(C)O
Conditions | viscosity
293.15 K, 101 kPa | 3.925 mPa·s
298 K, 101 kPa | 3.41 mPa·s and 4.324 mPa·s
298.15 K, 100 kPa | 4.396 mPa·s
303 K, 101.33 kPa | 3.268 mPa·s
303.15 K, 101.3 kPa | 3.318 mPa·s and 3.318 mPa·s
303.2 K, 101.33 kPa | 3.333 mPa·s and 3.333 mPa·s
305 K, 101 kPa | 3.076 mPa·s
308 K, 101 kPa | 2.333 mPa·s
308.15 K, 101.3 kPa | 2.55 mPa·s
308.15 K, 101.33 kPa | 2.644 mPa·s and 2.595 mPa·s and 2.546 mPa·s
313 K, 101 kPa | 2.102 mPa·s
313.15 K, 101.3 kPa | 2.047 mPa·s
318 K, 101 kPa | 1.702 mPa·s
318.15 K, 101.33 kPa | 1.889 mPa·s and 1.726 mPa·s
323 K, 101 kPa | 1.404 mPa·s
323.15 K, 100 kPa | 1.418 mPa·s
323.15 K, 101 kPa | 1.421 mPa·s and 1.423 mPa·s and 1.415 mPa·s

CN(CCO)CCO
viscosity
Conditions | 293.15 K | 298.15 K | 313.15 K | 323.15 K
101 kPa | 101.2 mPa·s | 74.81 mPa·s | 37.9 mPa·s and 34.04 mPa·s | 24.7 mPa·s and 21.53 mPa·s
101.33 kPa | – | 77.19 mPa·s and 77.19 mPa·s | – | –

CCNCC
Conditions | viscosity
293.15 K, 100 kPa | 0.32 mPa·s and 0.32 mPa·s
293.15 K, 101.33 kPa | 0.32 mPa·s
298.15 K, 101 kPa | 0.29 mPa·s and 0.265 mPa·s
303.15 K, 101.33 kPa | 0.288 mPa·s
308.15 K, 101 kPa | 0.2466 mPa·s
308.15 K, 101.33 kPa | 0.274 mPa·s
313.15 K, 100 kPa | 0.26 mPa·s and 0.26 mPa·s
318.15 K, 100 kPa | 0.248 mPa·s
323.15 K, 100 kPa | 0.237 mPa·s and 0.237 mPa·s

CCCBr
101 kPa
Conditions | viscosity [mPa·s]
293.15 K | 0.531
303.15 K | 0.486
308.15 K | 0.436
313.15 K | 0.448
323.15 K | 0.415

CC1OC(C)OC(C)O1 (centres undefined)
Conditions | viscosity [mPa·s]
293.15 K, 101.3 kPa | 1.224

COP(=O)([O-])OC.Cn1cc[n+](C)c1
viscosity [mPa·s]
Conditions | 293.15 K | 298.15 K | 303.15 K | 308.15 K | 313.15 K | 318.15 K | 323.15 K
101 kPa | 415.9 | 290.8 | 210.1 | 155.6 | 119.2 | 92.77 | 74.24
101.33 kPa | – | – | – | 139.5 | – | – | –

CCOC(=O)CCCBr
Conditions | viscosity [mPa·s]
303.15 K, 101 kPa | 1.826

NCCN
viscosity
Conditions | 293.15 K | 298.15 K | 303.15 K | 308.15 K | 313.15 K | 318.15 K | 323.15 K
100 kPa | – | – | – | – | 0.7611 mPa·s | – | –
101 kPa | 1.52 mPa·s and 1.62 mPa·s and 1.54 mPa·s | 1.37 mPa·s and 1.39 mPa·s and 1.26 mPa·s | 1.16 mPa·s and 1.18 mPa·s and 1.299 mPa·s (2×) | – | – | – | 0.737 mPa·s and 0.9042 mPa·s and 0.904 mPa·s
101.3 kPa | – | – | 1.29 mPa·s | 1.167 mPa·s | 1.06 mPa·s | 0.967 mPa·s | –
101.33 kPa | – | – | 1.299 mPa·s | 1.191 mPa·s | 1.08 mPa·s | 0.986 mPa·s | 0.904 mPa·s

CCCCCCCCNCCCCCCCC
Conditions | viscosity [mPa·s]
303.15 K, 101 kPa | 3.665

CCCC(=O)OC
101 kPa
Conditions | viscosity [mPa·s]
298.15 K | 0.546
323.15 K | 0.374

CCCCCCCC(=O)[O-].c1c[nH+]c[nH]1
101.3 kPa
Conditions | viscosity [mPa·s]
293.15 K | 88.48
298.15 K | 71.27
303.15 K | 56.48
308.15 K | 45.3
313.15 K | 36.92
318.15 K | 30.56
323.15 K | 25.33

COCCOCCOCCOC
viscosity [mPa·s]
Conditions | 298.15 K | 308.15 K
101 kPa | 1.979 | 1.607
101.33 kPa | 1.95 | –

COCCOCCOCCO
viscosity
Conditions | 293.15 K | 298.15 K | 303.15 K | 308.15 K | 313.15 K | 318.15 K | 323.15 K
101 kPa | 7.211 mPa·s | 6.287 mPa·s and 6.254 mPa·s | 5.412 mPa·s | 4.535 mPa·s | – | 3.726 mPa·s | –
101.33 kPa | – | – | – | 4.642 mPa·s and 5.055 mPa·s | 4.074 mPa·s and 4.08 mPa·s | – | 3.202 mPa·s and 3.2 mPa·s

CCNCC + CCCCCCCCO
viscosity [mPa·s], [1]
Conditions | x1 = 0.0804 | x1 = 0.16 | x1 = 0.2402 | x1 = 0.3517 | x1 = 0.4405 | x1 = 0.5609 | x1 = 0.65 | x1 = 0.7404 | x1 = 0.8495 | x1 = 0.9402
293.15 K | 8.22 | 7.36 | 6.53 | 5.45 | 4.61 | 3.56 | 2.82 | 2.13 | 1.33 | 0.7
303.15 K | 5.75 | 5.14 | 4.54 | 3.76 | 3.18 | 2.44 | 1.94 | 1.46 | 0.93 | 0.53
313.15 K | 4.15 | 3.7 | 3.26 | 2.69 | 2.28 | 1.75 | 1.4 | 1.06 | 0.69 | 0.42
323.15 K | 3.05 | 2.71 | 2.39 | 1.97 | 1.67 | 1.3 | 1.04 | 0.8 | 0.54 | 0.34
